The values below come from paper PMC3070735, “Uremic Toxins Inhibit Transport by Breast Cancer Resistance Protein and Multidrug Resistance Protein 4 at Clinically Relevant Concentrations” (PLoS ONE, 2011).

Data set [1] is described as follows: Plasma concentrations of uremic toxins in CRF and ESRD patients and healthy controls (HPLC, LC/MS-MS). It is filed as in vivo, human. The procedure: Blood samples were obtained from 4 patients with chronic renal failure (CRF) during regular check-up, 6 patients with end-stage renal disease (ESRD) before hemodialysis and 4 healthy controls. None of the subjects had been fasting at the time of blood sampling. Blood was collected in an EDTA Vacutainer and was immediately centrifuged at 3,000 x g for 10 min. Subsequently, plasma was collected and stored at −20°C. Before chromatography an aliquot of plasma was diluted in H2O (1∶1) and deproteinized with perchloric acid (final concentration 3.3% (v/v)). Next, samples were centrifuged at 12,000 x g for 3 min and 50 µl of the supernatant was injected into the HPLC-system (Spectra-Physics Analytical, Spectrasystem SCM400). […] Separation was performed at a flow rate of 1 ml/min with eluent A (95% (v/v) H2O, 5% (v/v) acetonitril and 0.1% (v/v) heptafluorobutyric acid) and eluent B (50% (v/v) H2O, 50% (v/v) acetonitrile and 0.1% (v/v) heptafluorobutyric acid) under the following gradient conditions: 0–1 min, 100% eluent A; 1–15 min, 100–25% eluent A; 15–17 min, 25% eluent A; 17–18 min, […]; 18–23 min, 100% eluent A. The compounds were detected at a wavelength of 230 nm. For the detection of phenylacetic acid, chromatography was performed on a C18 HPLC column (Polaris 3 C18-A 150×4.6 mm; Varian, Middelburg, the Netherlands) with eluent A (97% (v/v) 50 mM sodium phosphate buffer [pH 6.5] and 3% (v/v) methanol) and eluent B (50% (v/v) H2O, 49% (v/v) acetonitrile and 1% (v/v) tetrahydrofuran) using the following gradient: 0–1 min, 100% eluent A; 1–15 min, 100–90% eluent A; 15–18 min, 10–100% eluent B; 18–22 min, 100% eluent B; 22–25 min, 0–100% eluent A; 25–30 min, 100% eluent A. The flow rate was 1 ml/min and phenylacetic acid was measured at a wavelength of 215 nm. Standards of the compounds were also run in order to quantify the amount of toxins found in the samples. Acquired data were processed with PC1000 software (Spectrasystem).
To determine the levels of kynurenic acid, blood was collected from CRF patients and processed as described above. Subsequently, 10 µl of the clear supernatant was injected into the LC/MS-MS system that consisted of an Accela HPLC system (Thermo scientific, Breda, the Netherlands) equipped with a C18 HPLC column (VisionHT C18 B 100×2 mm, 1.5 µm; Grace). Separation was performed at a flow rate of 150 µl/min with eluent A (5 mM ammonium formate+0.01% (v/v) trifluoroacetic acid) and eluent B (50% acetonitrile) under the following gradient conditions: 0–10 min, 98–50% eluent A; 10–15 min, 50% eluent A; 15–16 min, 50–98% eluent A; 16–21 min, 98% eluent A. The fractions eluted were directly passed through a TSQ Vantage tandem mass spectrometer (Thermo scientific) equipped with an electro-spray ionization source operating in the positive ion mode. The ion spray voltage was 4 kV, source temperature was 350°C and collision gas pressure was 1.5 bar. Kynurinic acid and the internal standard 1-methyl-tryptophan were quantified by selected reaction monitoring (SRM). […] Acquired data were processed with Thermo Xcaliber software (Thermo scientific).

A short description of data set [2]: Uremic plasma concentrations (Cu, Cmax) in CKD patients from the EUTox database and literature. It is filed as in vivo, human. As to conditions: calculated as Cmax = Cu + 2 SD; read-out: Hypothetical Cmax.
Source text: The calculated Ki and IC20 values were compared with the mean plasma concentrations measured in ESRD patients during this study (Cm), the highest mean/median (Cu) and the highest maximal plasma concentrations (Cmax) measured in the literature in patients with CKD are also shown. The IC20 value was used since we believe that a 20% decrease in transport can already have a clinical impact. The Cu and Cmax values were obtained from the online database of the European Uremic Toxin (EUTox) Work Group (www.uremic-toxins.org; [19]), unless stated otherwise.
For data set [3] the following is noted: plasma of CKD patients, cited from earlier work.
Where [4] appears, read: CRF patients (n = 4), total plasma.
Setting [5] is: ESRD patients (n = 6), total plasma.
[6] abbreviates: healthy controls (n = 4), total plasma.

Structures can show the parent of a compound that is named as a salt. Where two headings read alike, the source gives them in different places. Marks after values point to notes of the source that are not given here.

In the case of `O=C(O)c1cc(=O)c2ccccc2[nH]1` [kynurenic acid], the “Cm, mean plasma concentration determined in this study” value (“Cm, mean plasma concentration” for short) in data set [1] (human, in vivo) came to 1 µM.

Consider `O=C(O)Cc1ccccc1` [phenylacetic acid], for which the Cmax in data set [2] was 7700 µM. Further, the results for the Maximum plasma concentration in data set [1] (CRF patients) and in data set [1] (ESRD patients) were 9 µM and 83 µM, respectively. The Mean plasma concentration in data set [1] (setting [4]) was 4 µM; in data set [1] (setting [6]), 5 µM. Besides, in data set [1] (setting [5]), the “Cm, mean plasma concentration” value was 18 µM. Also, the “Cu, highest median plasma concentration” value in data set [3] is 3.5 mM. In addition, the “Cu, highest mean/median uremic concentration” value in data set [3] (obtained from literature) is listed as 3490 ^a µM.

As for `O=C(O)Cc1c[nH]c2ccccc12` [indole-3-acetic acid], the “Cm, mean plasma concentration” value in data set [1] (human, in vivo) is reported as 4 µM.

On to `O=C(O)CNC(=O)c1ccccc1` [hippuric acid], for which the “Cm, mean plasma concentration” value in data set [1] (human, in vivo) worked out at 160 µM. Also, in data set [3] (ref www.uremic-toxins.org [19]), the “Cu, highest mean/median uremic concentration” value was 1380 µM and the “Cu, highest median uremic concentration” value is listed as 1.4 mM. In addition, the Cmax in data set [3] (ref www.uremic-toxins.org [19], read-out: Cmax, maximal uremic concentration) was 2600 µM.

As to `O=S(=O)(O)Oc1c[nH]c2ccccc12` [indoxyl sulfate], the values for the Mean plasma concentration in data set [1] (setting [4]) and in data set [1] (setting [6]) were 65 µM and 13 µM, respectively. Besides, in data set [1] (setting [5]), the “Cm, mean plasma concentration” value was 129 µM. Besides, in data set [3] (ref www.uremic-toxins.org [19]), the “Cu, highest mean/median uremic concentration” value is reported as 211 µM.
